The values that follow come from patent US9051331B2, “Substituted dihydro benzocycloalkyloxymethyl oxazolopyrimidinones, preparation and use thereof” (Sanofi, priority 2009, dated 2015).

The conditions of experiment [1]: DBA/2 mice; cited from earlier work.
Experiment [2] concerns the target rat or human mGluR2 receptor (UniProt Q14416). The experiment is described as follows: calcium ion (Ca2+) mobilization assay for allosteric modulators of mGluR2. The format is cell-based. The conditions noted are these: potency at approx. EC10 for glutamate; rat or human receptor not given; read-out: mGluR2 Potentiation (EC50). An excerpt: A calcium ion (Ca^2) mobilization assay was used to identify and determine the activity for allosteric modulators of the rat or human mGluR2 receptor. Two formats were used: (1) examine the ability of glutamate to affect the potency of the modulator, by looking at a concentration-response curve of compound at different submaximal glutamate concentrations, and (2) look at the ability of the modulator to affect the potency of glutamate by looking at a concentration-response curve of glutamate at a maximal modulator concentration.
To monitor functional receptor response using calcium mobilization, a cell line stably expressing the rat or human mGluR2 receptor (normally coupled to its intracellular effector molecules through an inhibitory G-protein, Gαi) and Gα16, in a tetracycline-inducible vector was created. Gα16 can promiscuously couple Gs and Gi-coupled receptors to the inositol phospholipid signaling pathway by activating phospholipase Cβ resulting in a Ca^2+ signal (normally Gαq-mediated), that can be monitored with fluorescence plate readers such as FLIPR (Molecular Devices, Fluorescence Imaging Plate Reader), FDSS6000 (Hamamatsu, Fluorescence Drug Screening System), or FlexStation (Molecular Devices). The Ca^2+ mobilization assay was based on the detection of intracellular calcium changes using a selective, calcium-chelating dye: Fluo-3, Fluo-4, or Calcium-3. A large fluorescence intensity increase was observed upon calcium association with the dye. The dye was delivered either with the acetoxy-methyl ester, and washed off, or using a no-wash kit (Molecular Devices). Fluorescence signals stimulated by glutamate were recorded and used to generate the following pharmacological parameters: (1) the potency (EC50) of the compound(s) of interest at approx. EC 10 for glutamate at the rat and human mGluR2 receptors respectively, and (2) a fold-shift of the glutamate EC50 by maximal concentration of compound(s) of interest.

The conditions of experiment [3]: rat; cited from earlier work.
The conditions of experiment [4]: pretreatment, healthy human subjects; cited from earlier work.
The conditions of experiment [5]: pentylenetetrazole- and picrotoxin-induced; cited from earlier work.
For experiment [6] the following is noted: some animal models; cited from earlier work.
The conditions of experiment [7]: compared to placebo; cited from earlier work.
The conditions of experiment [8]: mice; cited from earlier work.

pEC50: −log10 of the molar value.

As usually defined, the pEC50 is the negative decadic logarithm of the EC50, by convention in mol/L.

For the compound `N[C@H](C(=O)O)c1ccc(C(=O)O)c(O)c1` [(S)-4-carboxy-3-hydroxyphenylglycine], in experiment [1], the “protection against audiogenic seizures” value was “protects against audiogenic seizures”.
Consider `O=c1ccn2c(n1)O[C@H](COc1ccc3c(c1)CCCC3)C2` [Comparative Ex. 2, (S)-2-(5,6,7,8-Tetrahydro-naphthalen-2-yloxymethyl)-2,3-dihydro-oxazolo[3,2-a]pyrimidin-7-one], for which the negative-log EC50 (pEC50) in experiment [2] was 6.65.
With `CCC(F)(F)c1cc(=O)nc2n1C[C@@H](COc1ccc3c(c1)CCCC3(C)C)O2` [Example 10, (S)-5-(1,1-Difluoro-propyl)-2-(5,5-dimethyl-5,6,7,8-tetrahydro-naphthalen-2-yloxymethyl)-2,3-dihydro-oxazolo[3,2-a]pyrimidin-7-one], the negative-log EC50 (pEC50) in experiment [2] is 7.82.
The same measure, in the same setting: then `CCc1cn2c(nc1=O)O[C@H](COc1ccc3c(c1)CCCC3(C)C)C2` [Example 8, (S)-2-(5,5-Dimethyl-5,6,7,8-tetrahydro-naphthalen-2-yloxymethyl)-6-ethyl-2,3-dihydro-oxazolo[3,2-a]pyrimidin-7-one], with 7.77; and `CC1(C)CCc2cc(OC[C@@H]3Cn4ccc(=O)nc4O3)ccc21` [Example 1, (S)-2-(1,1-Dimethyl-indan-5-yloxymethyl)-2,3-dihydro-oxazolo[3,2-a]pyrimidin-7-one], with 7.54; and `CC1(C)CCc2cc(OC[C@H]3Cn4ccc(=O)nc4O3)ccc21` [Comparative Ex. 3, (R)-2-(1,1-Dimethyl-indan-5-yloxymethyl)-2,3-dihydro-oxazolo[3,2-a]pyrimidin-7-one], with 5.04.
For the compound `CCC(F)(F)c1cc(=O)nc2n1C[C@@H](COc1ccc3c(c1)CCC3(C)C)O2` [Example 9, (S)-5-(1,1-Difluoro-propyl)-2-(1,1-dimethyl-indan-5-yloxymethyl)-2,3-dihydro-oxazolo[3,2-a]pyrimidin-7-one], in experiment [2], the pEC50 was 7.19.
Take `N[C@@]1(C(=O)O)CO[C@H]2[C@H](C(=O)O)[C@H]21` [LY379268]: the “effect on REM sleep and fast EEG” value in experiment [3] is “suppresses rapid eye movement (REM) sleep and fast EEG”.
With `CC1(C)CCCc2cc(OC[C@@H]3Cn4ccc(=O)nc4O3)ccc21` [Example 2, (S)-2-(5,5-Dimethyl-5,6,7,8-tetrahydro-naphthalen-2-yloxymethyl)-2,3-dihydro-oxazolo[3,2-a]pyrimidin-7-one], the negative logarithm of the EC50 (pEC50) in experiment [2] was 7.72.
Regarding `N[C@@]1(C(=O)O)CC[C@H]2[C@H](C(=O)O)[C@H]21` [LY354740], the “effect on ketamine-disrupted working memory” value in experiment [4] is reported as “attenuation of the disruptive effects”. The “effect on chemically induced seizures” value in experiment [5] is “attenuates pentylenetetrazole- and picrotoxin-induced seizures”.
For the compound `CC1(C)CCC(C)(C)c2cc(OC[C@@H]3Cn4ccc(=O)nc4O3)ccc21` [Example 4, (S)-2-(5,5,8,8-Tetramethyl-5,6,7,8-tetrahydro-naphthalen-2-yloxymethyl)-2,3-dihydro-oxazolo[3,2-a]pyrimidin-7-one], the negative logarithm of the EC50 (pEC50) in experiment [2] was 7.82.
For the compound `O=c1ccn2c(n1)O[C@H](COc1ccc3c(c1)CCC3)C2` [Comparative Ex. 1, (S)-2-(Indan-5-yloxymethyl)-2,3-dihydro-oxazolo[3,2-a]pyrimidin-7-one], in experiment [2], the negative logarithm of the EC50 (pEC50) was 6.35.
Turning to `CC1(C)CCCCc2cc(OC[C@@H]3Cn4ccc(=O)nc4O3)ccc21` [Example 3, (S)-2-(5,5-Dimethyl-6,7,8,9-tetrahydro-5H-benzocyclohepten-2-yloxymethyl)-2,3-dihydro-oxazolo[3,2-a]pyrimidin-7-one], the negative logarithm of the EC50 (pEC50) in experiment [2] was 7.96.
Consider `CCc1cn2c(nc1=O)O[C@H](COc1ccc3c(c1)CCC3(C)C)C2` [Example 7, (S)-2-(1,1-Dimethyl-indan-5-yloxymethyl)-6-ethyl-2,3-dihydro-oxazolo[3,2-a]pyrimidin-7-one], for which, in experiment [2], the negative-log EC50 (pEC50) is 7.70.
In the case of `N[C@]1(C(=O)O)[C@H]2[C@@H](C[C@H]1OCc1ccc(Cl)c(Cl)c1)[C@]2(F)C(=O)O` [MGS0039], the antidepressant-like effects entry in experiment [6] was “dose-dependent antidepressant-like effects”.
As to `CSCC[C@H](N)C(=O)N[C@@]1(C(=O)O)CS(=O)(=O)[C@H]2[C@H](C(=O)O)[C@H]21` [LY2140023], in experiment [7], the “positive and negative symptoms of schizophrenia” value is on record as “statistically significant improvements”.
With `Cc1c(OCc2cccc(-c3ccc(C(=O)O)cc3)c2)cc2c(c1C)C(=O)C(C1CCCC1)C2` (stereo not drawn) [biphenyl-indanone A], in experiment [8], the “antipsychotic- and anxiolytic-like effects” value was “antipsychotic- and anxiolytic-like effects in mice”.
